A short description of data set [1]: Solubility of the compound in water. It counts as physicochemical.
Data set [2] in a line: Cytotoxicity against human LN229 cells assessed as concentration required for induction of cell death after 24 hrs by crystal violet staining based light microscopic analysis. It counts as functional, LN-229.
The nature of data set [3]: 1-Octanol-water distribution coefficient, log P of compound. It counts as physicochemical.
Data set [4] in a line: Solubility of compound in 1% DMSO at 100 mg/ml. It counts as physicochemical.
Data set [5] can be described thus: Solubility of the compound in trifluoroacetic acid. It counts as physicochemical.
Data set [6] can be described thus: Solubility of the compound in ethanol. The class given is physicochemical.
Data set [7] in a line: Solubility of the compound in CHCl3/TFA. It counts as physicochemical.
Data set [8] can be described thus: Solubility of the compound in chloroform. The class given is physicochemical.
A short description of data set [9]: Solubility of the compound in DMSO/TFA. It counts as physicochemical.
Data set [10] is described as follows: Solubility of the compound in isopropanol. The class given is physicochemical.
A short description of data set [11]: Solubility of the compound in DMSO. It counts as physicochemical.

In brackets after ≈: the same amount, converted by molar mass.

Broadly, the solubility is the dissolved amount per volume that the medium holds. Lower therefore signals little dissolved substance. Broadly, the logP is a log measure of how a compound divides between an organic and an aqueous phase. A higher logP goes with higher lipophilicity. `CN1C(=O)C(C(=O)Nc2ccc(Cl)cc2)C(=O)N(C)C1=O`: the solubility in data set [1] was 130 µg/mL (≈ 420 µM); in [4], “Insoluble”. Further, the Activity in data set [2] came to 10 µg/mL. In [3], this compound returned a logP of 1.18.
For the compound `O=C(NNC(=O)C1C(=O)NC(=O)N(c2ccccc2)C1=O)Nc1ccc(O)c([N+](=O)[O-])c1` (stereo not drawn), the solubility entry in data set [5], in data set [6], in [7], in data set [8], in data set [9] and in [10] was “Insoluble” in each case. Moreover, the solubility entry in data set [11] was “Insoluble”. Further, the Activity in data set [2] worked out at 100 µg/mL.
`O=C(NNC(=O)C1C(=O)NC(=O)N(c2ccccc2)C1=O)Nc1ccc([N+](=O)[O-])cc1` (stereo not drawn): the solubility result in data set [5], in data set [6], in [7], in data set [8], in [9] and in [10] was “Insoluble” each time. Further, in [11], the solubility entry is recorded as “Insoluble”. The Activity in [2] came to 100 µg/mL.
As for `CN1C(=O)NC(=O)C(C(=O)NNC(=O)Nc2ccc(O)cc2)C1=O` (stereo not drawn), the solubility entry was “Insoluble” in data set [5]; “Insoluble” in [6]; “Insoluble” in data set [7]; 70 µg/mL (≈ 209 µM) in data set [1]; “Insoluble” in data set [8]; “Insoluble” in data set [9]. Also, the solubility entry in data set [4], in [10] and in data set [11] was “Insoluble” each time. In data set [3], this compound yielded a logP of 1.08.
As to `N#Cc1ccc(NC(=O)NNC(=O)C2C(=O)NC(=O)N(c3ccccc3)C2=O)cc1` (stereo not drawn), the solubility entry in data set [5], in [6], in data set [7], in data set [8], in [9] and in [10] was “Insoluble” in each case. For the same compound, in data set [11], the solubility result is recorded as “Insoluble”. Moreover, the Activity in [2] worked out at 100 µg/mL.
For `CN1C(=O)C(C(=O)Nc2ccccc2)C(=O)N(C)C1=O`, the results for the solubility in data set [1] and in data set [4] were 140 µg/mL (≈ 509 µM) and “Insoluble”, respectively. For the same compound, the Activity in data set [2] was found to be 100 µg/mL. In addition, the logP in data set [3] was 0.4.
As to `CN1C(=O)C(C(=O)NNC(=O)Nc2ccc(Cl)c(Cl)c2)C(=O)N(C)C1=O`, the solubility entry was “Insoluble” in [5]; “Insoluble” in data set [6]; “Insoluble” in data set [7]; 500 µg/mL (≈ 1240 µM) in data set [1]; “Insoluble” in data set [8]; “Insoluble” in data set [9]. Further, the solubility result in data set [4], in data set [10] and in [11] was “Insoluble” each time. Also, the Activity in data set [2] stood at 1 µg/mL. Besides, in data set [3], the log partition coefficient (logP) was 0.73.

(Values after ChEMBL document CHEMBL3862023, “Synthesis of N-aryl and N-arylcarbamoylamino derivatives of 1,3-diazinane-5-carboxamide and their activity against glioblastoma LN-229 cell line” (Bioorg Med Chem, 2016).)
